Patent US11220482B2, “Aminopyridinemethanol compounds and their use” (UNIVERSITE AMIENS PICARDIE JULES VERNE, priority 2017, dated 2022)
Structures can show the parent of a compound that is named as a salt.

Key:
[1] = tested on: Plasmodium falciparum 3D7; assay: Plasmodium falciparum susceptibility assay, first round (SYBR Green I); assay type: cell-based; conditions: 3D7, first round, 48-h incubation, strain susceptible to CQ, decreased susceptibility to MQ, read-out: IC50 (nM) Plasmodium falciparum 3D7 (converted)
Plasmodium falciparum W2 = assay: as above; assay type: cell-based; conditions: W2, first round, 48-h incubation, strain resistant to CQ, sensitive to MQ, read-out: IC50 (nM) Plasmodium falciparum W2 (converted)

| IC50 [1] | IC50 (Plasmodium falciparum W2) | SMILES |
| --- | --- | --- |
| 170 ± 24 nM | 27.2 ± 9.3 nM | CCCCCCNC[C@@H](O)c1ccc(-c2ccc(C(F)(F)F)cc2)nc1C(F)(F)F [Compound 30e, (S)-2-(Hexylamino)-1-(2-(trifluoromethyl)-6-(4-(trifluoromethyl)phenyl)pyridin-3-yl)ethanol] |
| 32.8 nM | 14.4 nM | COC[C@H](Cc1ccccc1)NC[C@H](O)c1cc(-c2ccc(C(F)(F)F)cc2)nc(C(F)(F)F)c1 [Compound 1j, (R)-2-(((S)-1-Methoxy-3-phenylpropan-2-yl)amino)-1-(2-(trifluoromethyl)-6-(4-(trifluoromethyl)phenyl)pyridin-4-yl)ethanol] |
| 41.8 nM | 7.2 nM | CCCCCNC[C@H](O)c1cc(-c2ccc(C(F)(F)F)cc2)nc(C(F)(F)F)c1 [Compound 1b, (R)-2-(Pentylamino)-1-(2-(trifluoromethyl)-6-(4-(trifluoromethyl)phenyl)pyridin-4-yl)ethanol] |
|  | 67 ± 9.3 nM | O[C@H](CNCCCN1CCN(C(c2ccccc2)c2ccccc2)CC1)c1cc(-c2ccc(C(F)(F)F)cc2)nc(C(F)(F)F)c1 [1m•HCl, (S)-2-((3-(4-benzhydrylpiperazin-1-yl)propyl)amino)-1-(2-(trifluoromethyl)-6-(4-(trifluoromethyl)phenyl)pyridin-4-yl)ethanol hydrochloride] |
| 25 nM | 5.9 nM | O[C@@H](CNCCNC(c1ccccc1)c1ccccc1)c1cc(-c2ccc(C(F)(F)F)cc2)nc(C(F)(F)F)c1 [Compound 1h, (R)-2-((2-Benzhydrylamino)ethylamino)-1-(2-(trifluoromethyl)-6-(4-(trifluoromethyl)phenyl)pyridin-4-yl)ethanol] |
| 519 nM | 31.7 nM | CCCCCCCNC[C@H](O)c1ccc(-c2ccc(C(F)(F)F)cc2)nc1C(F)(F)F [Compound 30h, (R)-2-(Heptylamino)-1-(2-(trifluoromethyl)-6-(4-(trifluoromethyl)phenyl)pyridin-3-yl) ethanol] |
| 47.1 ± 13.2 nM |  | CCCCCCNC[C@@H](O)c1cc(-c2ccc(C(F)(F)F)cc2)nc(C(F)(F)F)c1 [Compound 1c, (S)-2-(Hexylamino)-1-(2-(trifluoromethyl)-6-(4-(trifluoromethyl)phenyl)pyridin-4-yl)ethanol] |
| 54.4 nM | 3.5 nM | CCCCCCCNC[C@H](O)c1cc(-c2ccc(C(F)(F)F)cc2)nc(C(F)(F)F)c1 [Compound 1f, (R)-2-(Heptylamino)-1-(2-(trifluoromethyl)-6-(4-(trifluoromethyl)phenyl)pyridin-4-yl)ethanol] |
| 97 ± 14 nM | 25.2 ± 1.2 nM | CCCCCCCNC[C@@H](O)c1ccc(-c2ccc(C(F)(F)F)cc2)nc1C(F)(F)F [Compound 30g, (S)-2-(Heptylamino)-1-(2-(trifluoromethyl)-6-(4-(trifluoromethyl)phenyl)pyridin-3-yl)ethanol] |
| 92.1 nM | 171 nM | O[C@@H](CNCCNC(c1ccccc1)c1ccccc1)c1ccc(-c2ccc(C(F)(F)F)cc2)nc1C(F)(F)F [Compound 30j, (R)-2-((2-(Benzhydrylamino)ethyl)amino)-1-(2-(trifluoromethyl)-6-(4-(trifluoromethyl)phenyl)pyridin-3-yl)ethanol] |
| 17.7 nM | 5.6 nM | CCCCCCCNC[C@@H](O)c1cc(-c2ccc(C(F)(F)F)cc2)nc(C(F)(F)F)c1 [Compound 1e, (S)-2-(Heptylamino)-1-(2-(trifluoromethyl)-6-(4-(trifluoromethyl)phenyl)pyridin-4-yl)ethanol] |
| 84.9 nM | 89.6 nM | O[C@@H](CNCCCN1CCN(C(c2ccccc2)c2ccccc2)CC1)c1ccc(-c2ccc(C(F)(F)F)cc2)nc1C(F)(F)F [Compound 30p, (R)-2-((3-(4-Benzhydrylpiperazin-1-yl)propyl)amino)-1-(2-(trifluoromethyl)-6-(4-(trifluoromethyl)phenyl)pyridin-3-yl)ethanol] |
| 414 nM | 258 nM | COC[C@H](Cc1ccccc1)NC[C@H](O)c1ccc(-c2ccc(C(F)(F)F)cc2)nc1C(F)(F)F [Compound 30l, (R)-2-(((S)-1-methoxy-3-phenylpropan-2-yl)amino)-1-(2-(trifluoromethyl)-6-(4-(trifluoromethyl)phenyl)pyridin-3-yl)ethanol] |
| 32.9 nM | 248 ± 36 nM | O[C@H](CNCCNC(c1ccccc1)c1ccccc1)c1ccc(-c2ccc(C(F)(F)F)cc2)nc1C(F)(F)F [Compound 30i, (S)-2-((2-(Benzhydrylamino)ethyl)amino)-1-(2-(trifluoromethyl)-6-(4-(trifluoromethyl)phenyl)pyridin-3-yl)ethanol] |
| 111 ± 8.3 nM | 212 ± 38.6 nM | O[C@H](CNCCCN1CCN(C(c2ccccc2)c2ccccc2)CC1)c1ccc(-c2ccc(C(F)(F)F)cc2)nc1C(F)(F)F [Compound 30o] |
| 575 nM | 523 nM | CCCCCCNC[C@H](O)c1ccc(-c2ccc(C(F)(F)F)cc2)nc1C(F)(F)F [Compound 30f, (R)-2-(Hexylamino)-1-(2-(trifluoromethyl)-6-(4-(trifluoromethyl)phenyl)pyridin-3-yl)ethanol] |
| 479 ± 38.2 nM | 132 ± 10.3 nM | CCCCNC[C@@H](O)c1ccc(-c2ccc(C(F)(F)F)cc2)nc1C(F)(F)F [Compound 30a, (S)-2-(Butylamino)-1-(2-(trifluoromethyl)-6-(4-(trifluoromethyl)phenyl)pyridin-3-yl)ethanol] |
| 22.4 ± 2.5 nM | 13.1 ± 1 nM | O[C@H](CNCCNC(c1ccccc1)c1ccccc1)c1cc(-c2ccc(C(F)(F)F)cc2)nc(C(F)(F)F)c1 [Compound 1g, (S)-2-((2-(Benzhydrylamino)ethyl)amino)-1-(2-(trifluoromethyl)-6-(4-(trifluoromethyl)phenyl)pyridin-4-yl)ethanol] |
| 126 nM |  | O[C@H](CNCCCN1CCN(C(c2ccccc2)c2ccccc2)CC1)c1cc(-c2ccc(C(F)(F)F)cc2)nc(C(F)(F)F)c1 [Compound 1m, (S)-2-((3-(4-benzhydrylpiperazin-1-yl)propyl)amino)-1-(2-(trifluoromethyl)-6-(4-(trifluoromethyl)phenyl)pyridin-4-yl)ethanol] |
| 558 nM | 551 nM | CCCCCNC[C@H](O)c1ccc(-c2ccc(C(F)(F)F)cc2)nc1C(F)(F)F [Compound 30d, (R)-2-(Pentylamino)-1-(2-(trifluoromethyl)-6-(4-(trifluoromethyl)phenyl)pyridin-3-yl)ethanol] |
| 125 nM |  | O[C@@H](CNCCCN1CCN(C(c2ccccc2)c2ccccc2)CC1)c1cc(-c2ccc(C(F)(F)F)cc2)nc(C(F)(F)F)c1 [1n•HCl, (R)-2-((3-(4-benzhydrylpiperazin-1-yl)propyl)amino)-1-(2-(trifluoromethyl)-6-(4-(trifluoromethyl)phenyl)pyridin-4-yl)ethanol hydrochloride] |
| 32.3 nM | 8.3 nM | CCCCCCNC[C@H](O)c1cc(-c2ccc(C(F)(F)F)cc2)nc(C(F)(F)F)c1 [Compound 1d, (R)-2-(Hexylamino)-1-(2-(trifluoromethyl)-6-(4-(trifluoromethyl)phenyl)pyridin-4-yl)ethanol] |
| 65.3 ± 8.4 nM | 351 ± 50.7 nM | COC[C@H](Cc1ccccc1)NC[C@@H](O)c1ccc(-c2ccc(C(F)(F)F)cc2)nc1C(F)(F)F [Compound 30k, (S)-2-(((S)-1-methoxy-3-phenylpropan-2-yl)amino)-1-(2-(trifluoromethyl)-6-(4-(trifluoromethyl)phenyl)pyridin-3-yl)ethanol] |
